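A five-concentration, 48-hour dose response in 96-well plates underlies each endpoint, interpolated linearly between surrounding concentrations. GI50 = concentration required for 50% inhibition of growth.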 Activity calls are given as the source filed them. Rule as the data show it: active = GI50 up to about 1.1 µM and inactive = higher.
Assays:
Experiment in all cases: growth of human tumour cells (NCI), 48 h
[1] = tested on: UACC-257
[2] = tested on: COLO 205
[3] = tested on: NCI-H460
[4] = tested on: MOLT-4
[5] = tested on: LOX IMVI
[6] = tested on: SF-268
[7] = tested on: SK-MEL-5
[8] = tested on: SW-620
[9] = tested on: ACHN
[10] = tested on: EKVX
[11] = tested on: SF-539
[12] = tested on: SK-MEL-28
[13] = tested on: NCI-H226
[14] = tested on: KM12
[15] = tested on: NCI-H522
[16] = tested on: OVCAR-3
[17] = tested on: HL-60
[18] = tested on: A549
[19] = tested on: CAKI-1

Measured: GI50

CC1CC2=Nc3ccccc3NC(c3ccccc3)C2=C(O)O1 (centres undefined)
inactive: [1] > 100 µM | [2] > 100 µM | [3] > 100 µM | [4] > 100 µM | [5] > 100 µM | [6] > 100 µM | [7] > 100 µM | [8] > 100 µM | [9] > 100 µM | [10] > 100 µM | [11] > 100 µM | [12] > 100 µM | [13] > 100 µM | [14] > 100 µM | [15] 47.1 µM | [16] > 100 µM | [17] > 100 µM | [18] > 100 µM

COC(=O)c1ccc(S)c(S(=O)(=O)Nc2nc(N)n[nH]2)c1
inactive: [1] > 100 µM | [2] > 100 µM | [19] > 100 µM | [3] > 100 µM | [4] > 100 µM | [5] > 100 µM | [7] > 100 µM | [8] > 100 µM | [9] > 100 µM | [10] > 100 µM | [11] > 100 µM | [12] > 100 µM | [14] > 100 µM | [15] > 100 µM | [16] > 100 µM | [17] > 100 µM | [18] > 100 µM

CN(c1nc(=[N+](C)C)ss1)C1CCCCC1
inactive: [1] > 100 µM | [19] > 100 µM | [3] 13.3 µM | [4] 95.1 µM | [5] > 100 µM | [6] 60.1 µM | [7] 68.7 µM | [8] > 100 µM | [9] > 100 µM | [10] > 100 µM | [11] > 100 µM | [12] > 100 µM | [13] > 100 µM | [14] 58.5 µM | [15] > 100 µM | [17] > 100 µM | [18] 38.3 µM

CC1(C)c2ccccc2C(C)(C)C(C(=O)Nc2ccccc2)C1C(=O)O (centres undefined)
inactive: [1] > 100 µM | [2] > 100 µM | [4] > 100 µM | [5] > 100 µM | [6] > 100 µM | [7] > 100 µM | [8] > 100 µM | [9] > 100 µM | [10] > 100 µM | [11] > 100 µM | [12] > 100 µM | [13] > 100 µM | [14] > 100 µM | [15] > 100 µM | [16] > 100 µM | [17] > 100 µM | [18] > 100 µM

COC1=CC(=O)c2ccccc2C1(CCC=C(C)C)C1=NC(C)(C)CO1 (centres undefined)
inactive: [1] 54.6 µM | [2] > 100 µM | [19] > 100 µM | [3] > 100 µM | [4] 31.7 µM | [6] > 100 µM | [7] > 100 µM | [8] > 100 µM | [9] 6.62 µM | [10] 71.8 µM | [11] > 100 µM | [12] > 100 µM | [13] > 100 µM | [14] > 100 µM | [15] 42.4 µM | [16] > 100 µM | [17] 23.7 µM | [18] 51.6 µM

COc1ccc2nc3cc(Cl)ccc3c(Sc3ccc([N+](=O)[O-])cc3C)c2c1
inactive: [1] > 100 µM | [2] 4.06 µM | [19] > 100 µM | [3] > 100 µM | [4] > 100 µM | [5] > 100 µM | [6] > 100 µM | [7] > 100 µM | [8] > 100 µM | [9] > 100 µM | [10] > 100 µM | [11] > 100 µM | [12] > 100 µM | [13] > 100 µM | [14] > 100 µM | [15] > 100 µM | [16] > 100 µM | [18] > 100 µM

Cc1ccccc1NC(=O)C(=O)C1CN(c2ccccc2)N=C1N (centres undefined)
inactive: [1] > 100 µM | [19] > 100 µM | [3] > 100 µM | [4] > 100 µM | [6] > 100 µM | [7] > 10 µM | [10] > 100 µM | [11] > 100 µM | [12] > 100 µM | [13] > 100 µM | [15] > 100 µM | [16] > 100 µM | [17] > 100 µM | [18] > 100 µM

CC1Cc2c(N)nc(N3CCOCC3)nc2NC1=O (centres undefined)
inactive: [1] > 100 µM | [2] > 100 µM | [3] > 100 µM | [4] > 100 µM | [5] > 100 µM | [7] > 100 µM | [8] > 100 µM | [9] > 100 µM | [10] > 100 µM | [11] > 100 µM | [12] > 100 µM | [13] > 100 µM | [14] > 100 µM | [15] > 100 µM | [16] > 100 µM | [17] > 100 µM | [18] > 100 µM

CC(=O)NC1=C(NCC(C)(C)C)C(=O)c2ccccc2C1=O
inactive: [1] 50.2 µM | [2] 39.3 µM | [3] 98.4 µM | [4] 57.3 µM | [5] 66.8 µM | [6] > 100 µM | [7] 40.2 µM | [8] 66.5 µM | [9] 26.9 µM | [10] 76.9 µM | [11] 32.9 µM | [12] > 100 µM | [13] > 100 µM | [14] 82.6 µM | [15] 18.9 µM | [16] 55.2 µM | [17] 32.1 µM | [18] > 100 µM

NC(=O)OCC1=C(COC(N)=O)C(=O)c2c(O)ccc(O)c2C1=O
inactive: [1] > 100 µM | [2] 58.7 µM | [19] > 100 µM | [4] 55.8 µM | [6] > 100 µM | [7] 48 µM | [8] 61.1 µM | [9] > 100 µM | [10] > 100 µM | [11] > 100 µM | [12] > 100 µM | [13] > 100 µM | [14] > 100 µM | [15] > 100 µM | [16] > 100 µM | [17] 45.2 µM | [18] > 100 µM

CC1CCCCc2nc3c(c(=O)n21)CCCC3 (centres undefined)
inactive: [1] > 100 µM | [2] > 100 µM | [19] > 100 µM | [3] > 100 µM | [4] > 100 µM | [5] > 100 µM | [6] > 100 µM | [8] > 100 µM | [9] > 100 µM | [11] > 100 µM | [12] > 100 µM | [13] > 100 µM | [14] > 100 µM | [15] > 100 µM | [16] > 100 µM | [18] > 100 µM

CCCCc1ccc(-n2c3nc(=O)n(C)c(=O)c-3nc3ccccc32)cc1
inactive: [1] 4.01 µM | [2] 3.09 µM | [19] 18.4 µM | [3] 4.03 µM | [4] 15.3 µM | [6] 10.1 µM | [7] 1.52 µM | [8] 6.18 µM | [9] 10.7 µM | [10] 4.05 µM | [11] 14.1 µM | [13] 11.7 µM | [14] 11.2 µM | [15] 7.6 µM | [16] 2.86 µM | [17] 10.6 µM | [18] 5.61 µM

Source: ChEMBL document CHEMBL1201862, “PubChem BioAssay data set” (2004)
